Calls of active or inactive are those of the source. The calls are words filed in the database; no cut-off is given here.
Tests used:
K562 [1] = test: Cytotoxicity against human K562 cells after 72 hrs by calcein AM staining-based fluorescence assay; format: functional, cell-based; conditions: K562, 72 h
RPMI-8226 [2] = test: Cytotoxicity against human RPMI8226 cells after 72 hrs by calcein AM staining-based fluorescence assay; format: functional, cell-based; conditions: RPMI-8226, 72 h
[3] = biological target: Cyclin-dependent kinase 2/cyclin E1 (Homo sapiens, UniProt P24941); test: Inhibition of CDK2/cyclin E (unknown origin) expressed in baculovirus infected Sf9 cells
MCF7 [4] = test: Cytotoxicity against human MCF7 cells after 72 hrs by calcein AM staining-based fluorescence assay; format: functional, cell-based; conditions: MCF7, 72 h
MCF7 [5] = test: Cell cycle arrest in 8 hrs thymidine-synchronized human MCF7 cells assessed as inhibition of re-entry to cell cycle at 5 to 10 uM after 16 hrs by propidium iodide staining-based flow cytometry; format: functional
MCF7 [6] = test: Cell cycle arrest in 24 hrs thymidine-synchronized human MCF7 cells assessed as inhibition of re-entry to cell cycle at 5 to 10 uM after 16 hrs by propidium iodide staining-based flow cytometry; format: functional
[7] = biological target: Cyclin-dependent kinase 7/ cyclin H (Homo sapiens, UniProt P50613); test: Inhibition of CDK7/cyclin H (unknown origin) expressed in baculovirus infected Sf9 cells
Sequence of Cyclin-dependent kinase 7/ cyclin H (P51946 whole entry): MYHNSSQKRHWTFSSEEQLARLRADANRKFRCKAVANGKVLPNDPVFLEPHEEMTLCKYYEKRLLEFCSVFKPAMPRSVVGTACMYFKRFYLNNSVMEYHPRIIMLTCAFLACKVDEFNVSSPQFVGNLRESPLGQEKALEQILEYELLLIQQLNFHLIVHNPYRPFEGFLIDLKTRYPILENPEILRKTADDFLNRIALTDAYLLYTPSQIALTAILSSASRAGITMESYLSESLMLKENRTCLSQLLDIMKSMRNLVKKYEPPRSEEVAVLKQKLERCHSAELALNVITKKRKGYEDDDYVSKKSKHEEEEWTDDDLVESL
Sequence of Cyclin-dependent kinase 7/ cyclin H (P50613 whole entry): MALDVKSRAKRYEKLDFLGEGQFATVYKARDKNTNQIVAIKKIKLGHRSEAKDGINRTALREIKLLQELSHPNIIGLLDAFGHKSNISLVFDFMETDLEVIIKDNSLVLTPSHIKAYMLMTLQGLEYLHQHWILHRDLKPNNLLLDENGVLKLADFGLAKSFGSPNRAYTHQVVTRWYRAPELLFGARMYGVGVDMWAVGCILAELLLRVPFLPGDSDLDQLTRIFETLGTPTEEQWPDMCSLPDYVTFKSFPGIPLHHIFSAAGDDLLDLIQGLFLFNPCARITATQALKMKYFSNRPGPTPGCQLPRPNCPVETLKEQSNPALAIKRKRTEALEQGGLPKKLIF

K562 [8] = test: Cell cycle arrest in human K562 cells assessed as accumulation at G2/M phase at 100 uM after 24 hrs by propidium iodide staining-based flow cytometry (reference value: 25.8%); format: functional
K562 [9] = test: Cell cycle arrest in human K562 cells assessed as accumulation at subG1 phase at 100 uM after 24 hrs by propidium iodide staining-based flow cytometry (reference value: 2.3%); format: functional
[10] = Cell cycle arrest in human RPMI8226 cells assessed as accumulation at G2/M phase at 100 uM after 24 hrs by propidium iodide staining-based flow cytometry (reference value: 24.8%); format: functional; conditions: RPMI-8226
K562 [11] = test: Cell cycle arrest in human K562 cells assessed as accumulation at S phase at 100 uM after 24 hrs by propidium iodide staining-based flow cytometry (reference value: 47.9%); format: functional
[12] = Cell cycle arrest in human RPMI8226 cells assessed as accumulation at S phase at 100 uM after 24 hrs by propidium iodide staining-based flow cytometry (reference value: 53%); format: functional; conditions: RPMI-8226
MCF7 [13] = test: Cell cycle arrest in human MCF7 cells assessed as accumulation at G1 phase at 40 uM after 24 hrs by propidium iodide staining-based flow cytometry (reference value: 61.9%); format: functional
MCF7 [14] = test: Cell cycle arrest in human MCF7 cells assessed as accumulation at G2/M phase at 40 uM after 24 hrs by propidium iodide staining-based flow cytometry (reference value: 9.8%); format: functional
RPMI-8226 [15] = test: Induction of apoptosis in human RPMI8226 cells assessed as increase in caspase 9 activity at 25 to 100 uM after 24 hrs by fluorescence assay; format: functional, cell-based
MCF7 [16] = test: Cell cycle arrest in 24 hrs thymidine-synchronized human MCF7 cells assessed as delay in cell cycle progression at 12.5 to 25 uM after 16 hrs by propidium iodide staining-based flow cytometry; format: functional
[17] = biological target: Cyclin-dependent kinase 1/cyclin B1 (Homo sapiens, UniProt P06493); test: Inhibition of CDK1/cyclin B (unknown origin) expressed in baculovirus infected Sf9 cells
Sequence of Cyclin-dependent kinase 1/cyclin B1 (P06493 whole entry): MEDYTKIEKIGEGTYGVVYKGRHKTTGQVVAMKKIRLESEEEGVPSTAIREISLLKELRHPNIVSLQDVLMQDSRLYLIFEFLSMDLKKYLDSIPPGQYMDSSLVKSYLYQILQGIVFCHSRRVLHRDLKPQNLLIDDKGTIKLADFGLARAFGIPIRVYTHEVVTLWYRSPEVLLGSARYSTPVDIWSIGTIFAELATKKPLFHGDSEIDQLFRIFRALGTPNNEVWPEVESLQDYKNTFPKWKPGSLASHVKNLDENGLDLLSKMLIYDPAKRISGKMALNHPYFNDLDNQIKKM
Sequence of Cyclin-dependent kinase 1/cyclin B1 (P14635 whole entry, further chain): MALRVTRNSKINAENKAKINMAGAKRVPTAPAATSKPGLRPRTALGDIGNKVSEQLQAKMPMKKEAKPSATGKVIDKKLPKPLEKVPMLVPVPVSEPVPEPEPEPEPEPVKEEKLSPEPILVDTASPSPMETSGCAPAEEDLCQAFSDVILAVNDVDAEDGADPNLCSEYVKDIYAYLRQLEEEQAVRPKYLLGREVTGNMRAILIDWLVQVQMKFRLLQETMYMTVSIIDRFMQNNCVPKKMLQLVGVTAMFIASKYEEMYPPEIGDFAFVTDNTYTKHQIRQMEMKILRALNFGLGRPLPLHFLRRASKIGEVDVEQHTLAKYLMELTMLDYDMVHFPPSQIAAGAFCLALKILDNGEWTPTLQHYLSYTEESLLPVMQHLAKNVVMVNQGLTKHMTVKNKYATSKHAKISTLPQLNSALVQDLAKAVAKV

[18] = biological target: Cyclin-dependent kinase 4/cyclin D1 (Homo sapiens, UniProt P11802); test: Inhibition of CDK4/cyclin D1 (unknown origin) expressed in baculovirus infected Sf9 cells
Sequence of Cyclin-dependent kinase 4/cyclin D1 (P11802 whole entry): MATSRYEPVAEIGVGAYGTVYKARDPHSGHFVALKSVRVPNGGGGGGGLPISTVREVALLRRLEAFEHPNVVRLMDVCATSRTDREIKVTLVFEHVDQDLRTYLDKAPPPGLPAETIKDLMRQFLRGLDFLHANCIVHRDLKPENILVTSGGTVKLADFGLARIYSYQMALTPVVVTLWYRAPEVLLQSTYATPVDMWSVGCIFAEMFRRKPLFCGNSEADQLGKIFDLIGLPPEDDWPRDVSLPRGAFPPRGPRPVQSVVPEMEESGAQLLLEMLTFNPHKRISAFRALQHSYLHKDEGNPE
Sequence of Cyclin-dependent kinase 4/cyclin D1 (P24385 whole entry, further chain): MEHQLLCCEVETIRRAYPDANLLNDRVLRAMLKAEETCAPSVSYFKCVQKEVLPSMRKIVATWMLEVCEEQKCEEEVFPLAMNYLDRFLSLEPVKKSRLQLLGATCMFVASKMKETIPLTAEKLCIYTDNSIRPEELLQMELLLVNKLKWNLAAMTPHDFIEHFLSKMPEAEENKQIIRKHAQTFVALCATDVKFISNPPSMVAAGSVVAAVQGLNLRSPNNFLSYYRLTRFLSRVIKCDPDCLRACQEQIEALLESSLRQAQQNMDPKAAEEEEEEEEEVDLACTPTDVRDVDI

[19] = Cell cycle arrest in human RPMI8226 cells assessed as accumulation at subG1 phase at 100 uM after 24 hrs by propidium iodide staining-based flow cytometry (reference value: 9.8%); format: functional; conditions: RPMI-8226
K562 [20] = test: Cell cycle arrest in human K562 cells assessed as accumulation at G1 phase at 100 uM after 24 hrs by propidium iodide staining-based flow cytometry (reference value: 26.3%); format: functional
CDK9/cyclin T1 = CDK9/cyclin T1 (Homo sapiens, UniProt P50750); test: Inhibition of CDK9/cyclin T1 (unknown origin) expressed in baculovirus infected Sf9 cells
Sequence of CDK9/cyclin T1 (O60563 whole entry): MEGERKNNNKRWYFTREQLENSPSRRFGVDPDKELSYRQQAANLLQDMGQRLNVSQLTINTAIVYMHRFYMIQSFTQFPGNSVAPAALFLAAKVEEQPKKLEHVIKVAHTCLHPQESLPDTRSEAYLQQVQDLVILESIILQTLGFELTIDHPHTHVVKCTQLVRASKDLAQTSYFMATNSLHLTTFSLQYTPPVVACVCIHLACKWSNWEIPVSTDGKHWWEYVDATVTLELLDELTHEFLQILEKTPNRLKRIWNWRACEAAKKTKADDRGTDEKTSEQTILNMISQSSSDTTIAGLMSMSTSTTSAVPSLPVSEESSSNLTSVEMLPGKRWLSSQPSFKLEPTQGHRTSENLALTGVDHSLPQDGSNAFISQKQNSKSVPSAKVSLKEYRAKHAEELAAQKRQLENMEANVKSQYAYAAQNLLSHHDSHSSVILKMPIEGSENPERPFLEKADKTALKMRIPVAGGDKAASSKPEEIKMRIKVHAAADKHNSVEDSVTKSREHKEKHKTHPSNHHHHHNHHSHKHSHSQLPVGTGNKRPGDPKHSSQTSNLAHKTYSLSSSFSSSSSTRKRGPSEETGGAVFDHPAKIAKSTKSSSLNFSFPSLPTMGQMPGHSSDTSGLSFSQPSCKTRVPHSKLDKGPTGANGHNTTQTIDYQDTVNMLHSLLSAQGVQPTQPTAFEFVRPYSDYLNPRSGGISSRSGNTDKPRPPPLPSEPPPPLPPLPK
Sequence of CDK9/cyclin T1 (P50750 whole entry): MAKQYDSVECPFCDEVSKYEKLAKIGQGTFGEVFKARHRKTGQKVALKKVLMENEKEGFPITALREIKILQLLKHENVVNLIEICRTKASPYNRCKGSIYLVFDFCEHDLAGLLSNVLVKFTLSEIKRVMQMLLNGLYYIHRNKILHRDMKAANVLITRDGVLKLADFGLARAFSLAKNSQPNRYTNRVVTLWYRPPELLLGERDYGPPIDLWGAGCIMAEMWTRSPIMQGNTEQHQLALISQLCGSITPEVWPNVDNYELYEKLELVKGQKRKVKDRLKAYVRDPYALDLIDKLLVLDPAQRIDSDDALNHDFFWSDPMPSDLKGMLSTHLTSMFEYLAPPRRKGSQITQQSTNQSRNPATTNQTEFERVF

RPMI-8226 [21] = test: Induction of apoptosis in human RPMI8226 cells assessed as increase in caspase 3 activity at 25 to 100 uM after 24 hrs by fluorescence assay; format: functional, cell-based
MCF7 [22] = test: Cell cycle arrest in human MCF7 cells assessed as accumulation at subG1 phase at 40 uM after 24 hrs by propidium iodide staining-based flow cytometry (reference value: 0.6%); format: functional
MCF7 [23] = test: Cell cycle arrest in human MCF7 cells assessed as accumulation at S phase at 40 uM after 24 hrs by propidium iodide staining-based flow cytometry (reference value: 28.3%); format: functional
MCF7 [24] = test: Cell cycle arrest in 24 hrs serum-deprived human asynchronous MCF7 cells assessed as inhibition of re-entry to G1 phase at 6.25 to 25 uM after 16 hrs by propidium iodide staining-based flow cytometry; format: functional
RPMI-8226 [25] = test: Induction of apoptosis in human RPMI8226 cells assessed as PARP-1 cleavage at 25 to 100 uM after 24 hrs by immunoblot analysis; format: functional, cell-based
RPMI-8226 [26] = test: Induction of apoptosis in human RPMI8226 cells assessed as caspase 3 activation at 25 to 100 uM after 24 hrs by immunoblot analysis; format: functional, cell-based
MCF7 [27] = test: Cell cycle arrest in 8 hrs thymidine-synchronized human MCF7 cells assessed as delay in cell cycle progression at 12.5 to 25 uM after 16 hrs by propidium iodide staining-based flow cytometry; format: functional
RPMI-8226 [28] = test: Induction of apoptosis in human RPMI8226 cells assessed as caspase 7 activation at 25 to 100 uM after 24 hrs by immunoblot analysis; format: functional, cell-based
[29] = Cell cycle arrest in human RPMI8226 cells assessed as accumulation at G1 phase at 100 uM after 24 hrs by propidium iodide staining-based flow cytometry (reference value: 22.2%); format: functional; conditions: RPMI-8226

CC(=O)n1nc(N)c(/N=N/c2ccc(O)cc2)c1N
IC50 (K562 [1]): 64.9 µM
IC50 (RPMI-8226 [2]): > 100 µM
IC50 [3]: 42.8 µM
IC50 (MCF7 [4]): 44.9 µM

Nc1nn(C(=O)c2ccc([N+](=O)[O-])cc2)c(N)c1/N=N/c1ccc(O)cc1
IC50 (K562 [1]): > 25 µM
IC50 (RPMI-8226 [2]): > 100 µM
IC50 [3]: 15 µM
IC50 (MCF7 [4]): > 25 µM

Nc1n[nH]c(N)c1/N=N/c1cccc[n+]1[O-]
IC50 (K562 [1]): 62.6 µM
IC50 (RPMI-8226 [2]): > 100 µM
IC50 [3]: > 100 µM
IC50 (MCF7 [4]): > 100 µM

Nc1n[nH]c(N)c1/N=N/c1cc[n+]([O-])cc1
IC50 (K562 [1]): > 100 µM
IC50 (RPMI-8226 [2]): > 100 µM
IC50 [3]: 17.4 µM
IC50 (MCF7 [4]): > 100 µM

Nc1nn(C(=O)c2cccs2)c(N)c1/N=N/c1ccc(O)cc1
IC50 (K562 [1]): > 25 µM
IC50 (RPMI-8226 [2]): > 100 µM
IC50 [3]: > 25 µM
IC50 (MCF7 [4]): > 25 µM

Cn1nc(N)c(/N=N/c2ccc(O)cc2)c1N
IC50 (K562 [1]): 98.5 µM
IC50 (RPMI-8226 [2]): > 100 µM
IC50 [3]: > 50 µM
IC50 (MCF7 [4]): > 100 µM

Nc1n[nH]c(N)c1/N=N/c1ccncc1
IC50 (K562 [1]): 17 µM
IC50 (RPMI-8226 [2]): 6.2 µM
IC50 (MCF7 [4]): 4.3 µM

CCn1cnc2c(Nc3cccc(Cl)c3)nc(N[C@@H]3CCCC[C@@H]3N)nc21
inhibition (MCF7 [5]): Active
inhibition (MCF7 [6]): Active

Nc1n[nH]c(N)c1/N=N/c1ccc(O)cc1
IC50 (K562 [1]): 33 µM
IC50 (RPMI-8226 [2]): 24.9 µM
IC50 (MCF7 [4]): 62 µM

CCOC(=O)n1nc(N)c(/N=N/c2ccc(O)cc2)c1N
IC50 (K562 [1]): > 100 µM
IC50 (RPMI-8226 [2]): > 100 µM
IC50 [3]: > 50 µM
IC50 (MCF7 [4]): > 100 µM

Cn1nc(N)c(/N=N/c2ccncc2)c1N
IC50 (K562 [1]): 67.4 µM
IC50 [7]: > 50 µM
Activity (K562 [8]): 35.4%
Activity (K562 [9]): 6.5%
IC50 (RPMI-8226 [2]): 50 µM
Activity [10]: 28.9%
Activity (K562 [11]): 31.4%
Activity [12]: 39.8%
Activity (MCF7 [13]): 50.6%
Activity (MCF7 [14]): 33.5%
Activity (RPMI-8226 [15]): Active
Activity (MCF7 [16]): Active
IC50 [3]: 16.8 µM
IC50 [17]: 11.3 µM
IC50 [18]: 0.42 µM
Activity [19]: 57.7%
Activity (K562 [20]): 33.2%
IC50 (CDK9/cyclin T1): 1.35 µM
Activity (RPMI-8226 [21]): Active
Activity (MCF7 [22]): 1%
Activity (MCF7 [23]): 15.8%
IC50 (MCF7 [4]): 37.7 µM
Activity (MCF7 [24]): Active
Activity (RPMI-8226 [25]): Active
Activity (RPMI-8226 [26]): Active
Activity (MCF7 [27]): Active
Activity (RPMI-8226 [28]): Active
Activity [29]: 31.3%
